Experimental data as given in PubChem BioAssay AID190 (DTP/NCI, 2004).
Where “and” joins values, the source holds several entries; their conditions need not be identical. Identical values can stand only once. Toxic doses and inconclusive results are not listed. How the source made its calls: active means survival T/C of 150% or more; inactive means T/C below 125% in these data.

Tested on: AKR/Lw mice, AKR lymphoma ip, median survival T/C
Test: NCI In Vivo Anticancer Drug Screen. Data for tumor model Lymphoma AKR (Transplanted) (intraperitoneal) in AKR/Lw mice
Settings: endpoint: median survival time, higher = longer survival
Description: The antitumor activity of compounds was measured in mice bearing transplantable tumors. Survival or tumor size were measured and the results are expressed as the measurement made in the treated group (T) divided by the measurement made in the vehicle treated control group (C). The tumor model used in this assay is Lymphoma AKR (Transplanted) (intraperitoneal) in AKR/Lw mice

[1] = dose: 100.0 mg/kg/injection, schedule: Q01DX001 (ip), vehicle: saline
[2] = dose: 200.0 mg/kg/injection, schedule: Q01DX001 (ip), vehicle: saline
[3] = dose: 400.0 mg/kg/injection, schedule: Q01DX001 (ip), vehicle: saline
[4] = dose: 100.0 mg/kg/injection, schedule: Q04DX003 (ip), vehicle: Klucel (hydroxypropylcellulose) (HPC)
[5] = dose: 100.0 mg/kg/injection, schedule: Q01DX001 (ip), vehicle: Klucel (hydroxypropylcellulose) (HPC)
[6] = dose: 200.0 mg/kg/injection, schedule: Q01DX001 (ip), vehicle: Klucel (hydroxypropylcellulose) (HPC)
[7] = dose: 400.0 mg/kg/injection, schedule: Q01DX001 (ip), vehicle: Klucel (hydroxypropylcellulose) (HPC)

Measured: T/C

CC(=O)OCC(=O)[C@@]1(O)CC[C@H]2[C@@H]3C[C@H](F)C4=CC(=O)CC[C@]4(C)[C@H]3C(=O)C[C@@]21C
inactive: dose: 50.0 mg/kg/injection, schedule: Q04DX003 (ip), vehicle: saline with Tween-80 103 % of control | dose: 100.0 mg/kg/injection, schedule: Q01DX001 (ip), vehicle: saline with Tween-80 90 % of control | dose: 200.0 mg/kg/injection, schedule: Q01DX001 (ip), vehicle: saline with Tween-80 111 % of control

NC(=O)c1[nH]nc(C2OC(CO)C(O)C2O)c1O (stereo not given)
inactive: dose: 0.07 mg/kg/injection, schedule: Q01DX009 (ip), vehicle: saline 86 % of control | dose: 0.25 mg/kg/injection, schedule: Q04DX003 (ip), vehicle: saline 105 % of control | dose: 0.5 mg/kg/injection, schedule: Q04DX003 (ip), vehicle: saline 105 % of control | dose: 0.75 mg/kg/injection, schedule: Q04DX003 (ip), vehicle: saline 88 % of control | dose: 1.0 mg/kg/injection, schedule: Q04DX003 (ip), vehicle: saline 90 % of control | dose: 7.5 micrograms/kg/injection, schedule: Q01DX009 (ip), vehicle: saline 110 % of control | dose: 15.0 micrograms/kg/injection, schedule: Q01DX009 (ip), vehicle: saline 121 % of control | dose: 30.0 micrograms/kg/injection, schedule: Q01DX009 (ip), vehicle: saline 103 % of control | dose: 60.0 micrograms/kg/injection, schedule: Q01DX009 (ip), vehicle: saline 121 % of control

COc1ccc(/C=C2\CCC3C(=O)CCCC3(C)C2=O)cc1 (stereo not given)
inactive: [1] 90 % of control | [2] 100 % of control | [3] 97 % of control

Cn1c(O)c(C=N)c(=O)[nH]c1=O
inactive: [1] 113 % of control | [4] 104 % of control | [2] 94 % of control | dose: 200.0 mg/kg/injection, schedule: Q04DX003 (ip), vehicle: Klucel (hydroxypropylcellulose) (HPC) 93 % of control | [3] 113 % of control | dose: 400.0 mg/kg/injection, schedule: Q04DX003 (ip), vehicle: Klucel (hydroxypropylcellulose) (HPC) 97 % of control

c1ccc(CC(Cc2ccccc2)=[N+]2CCCC2)cc1
inactive: [1] 97 % of control | [2] 88 % of control | [3] 88 % of control

S=C1SCN(Cc2ccccc2)CN1Cc1ccccc1
inactive: [1] 111 % of control | [2] 91 % of control | [3] 91 % of control

NC(CSC(c1ccccc1)(c1ccccc1)c1ccccc1)C(=O)O (stereo not given)
inactive: dose: 0.6 mg/kg/injection, schedule: Q01DX009 (ip), vehicle: Klucel (hydroxypropylcellulose) (HPC) 111 % of control | dose: 1.2 mg/kg/injection, schedule: Q01DX009 (ip), vehicle: Klucel (hydroxypropylcellulose) (HPC) 114 % of control and 117 % of control | dose: 2.5 mg/kg/injection, schedule: Q01DX009 (ip), vehicle: Klucel (hydroxypropylcellulose) (HPC) 117 % of control | dose: 5.0 mg/kg/injection, schedule: Q01DX009 (ip), vehicle: Klucel (hydroxypropylcellulose) (HPC) 88 % of control and 120 % of control | dose: 6.0 mg/kg/injection, schedule: Q01DX009 (ip), vehicle: Klucel (hydroxypropylcellulose) (HPC) 94 % of control | dose: 6.2 mg/kg/injection, schedule: Q04DX003 (ip), vehicle: Klucel (hydroxypropylcellulose) (HPC) 108 % of control | dose: 6.25 mg/kg/injection, schedule: Q01DX009 (ip), vehicle: Klucel (hydroxypropylcellulose) (HPC) 94 % of control | dose: 10.0 mg/kg/injection, schedule: Q01DX009 (ip), vehicle: Klucel (hydroxypropylcellulose) (HPC) 102 % of control | dose: 12.0 mg/kg/injection, schedule: Q01DX009 (ip), vehicle: Klucel (hydroxypropylcellulose) (HPC) 88 % of control | dose: 12.5 mg/kg/injection, schedule: Q01DX009 (ip), vehicle: Klucel (hydroxypropylcellulose) (HPC) 94 % of control | dose: 12.5 mg/kg/injection, schedule: Q04DX003 (ip), vehicle: Klucel (hydroxypropylcellulose) (HPC) 91 % of control and 94 % of control and 102 % of control | dose: 20.0 mg/kg/injection, schedule: Q01DX009 (ip), vehicle: Klucel (hydroxypropylcellulose) (HPC) 102 % of control and 108 % of control | dose: 25.0 mg/kg/injection, schedule: Q01DX009 (ip), vehicle: Klucel (hydroxypropylcellulose) (HPC) 91 % of control and 100 % of control | dose: 25.0 mg/kg/injection, schedule: Q01DX009 (ip), vehicle: saline 94 % of control and 97 % of control and 109 % of control | dose: 25.0 mg/kg/injection, schedule: Q04DX003 (ip), vehicle: Klucel (hydroxypropylcellulose) (HPC) 94 % of control and 97 % of control | dose: 25.0 mg/kg/injection, schedule: Q04DX003 (ip), vehicle: saline 102 % of control | dose: 37.5 mg/kg/injection, schedule: Q01DX001 (ip), vehicle: saline 102 % of control and 103 % of control (2×) | dose: 50.0 mg/kg/injection, schedule: Q01DX009 (ip), vehicle: saline 105 % of control | dose: 50.0 mg/kg/injection, schedule: Q04DX003 (ip), vehicle: saline 97 % of control | dose: 75.0 mg/kg/injection, schedule: Q01DX001 (ip), vehicle: saline 95 % of control and 103 % of control and 110 % of control | [5] 97 % of control | [1] 100 % of control | dose: 100.0 mg/kg/injection, schedule: Q04DX003 (ip), vehicle: saline 91 % of control | dose: 150.0 mg/kg/injection, schedule: Q01DX001 (ip), vehicle: saline 90 % of control and 105 % of control and 106 % of control | [6] 109 % of control | [7] 118 % of control

COc1ccc(-n2c(=S)[nH]c3ccccc3c2=O)cc1
inactive: dose: 75.0 mg/kg/injection, schedule: Q04DX003 (ip), vehicle: Klucel (hydroxypropylcellulose) (HPC) 88 % of control | [5] 106 % of control | dose: 150.0 mg/kg/injection, schedule: Q04DX003 (ip), vehicle: Klucel (hydroxypropylcellulose) (HPC) 86 % of control | [6] 87 % of control | [7] 90 % of control

OCC1(O)CC(O)C(O)(CO)CC1O (stereo not given)
inactive: [1] 97 % of control | [2] 116 % of control | [3] 104 % of control

c1cc2cc3c(cc2cc1CC1NCCc2cc4c(cc21)OCO4)OCO3 (stereo not given)
inactive: [5] 94 % of control | [4] 96 % of control | [6] 105 % of control | [7] 94 % of control

COc1cc2c(c3c1c(=O)c1ccccc1n3C)C=CC(C)(C)O2
inactive: dose: 16.0 mg/kg/injection, schedule: Q01DX010 (ip), vehicle: Klucel (hydroxypropylcellulose) (HPC) 106 % of control | dose: 31.25 mg/kg/injection, schedule: Q01DX010 (ip), vehicle: Klucel (hydroxypropylcellulose) (HPC) 103 % of control | dose: 36.0 mg/kg/injection, schedule: Q03HX024 (ip), vehicle: Klucel (hydroxypropylcellulose) (HPC) 120 % of control | dose: 62.5 mg/kg/injection, schedule: Q01DX010 (ip), vehicle: Klucel (hydroxypropylcellulose) (HPC) 122 % of control | dose: 62.5 mg/kg/injection, schedule: Q03HX024 (ip), vehicle: Klucel (hydroxypropylcellulose) (HPC) 115 % of control | dose: 125.0 mg/kg/injection, schedule: Q03HX024 (ip), vehicle: Klucel (hydroxypropylcellulose) (HPC) 115 % of control | dose: 360.0 mg/kg/injection, schedule: Q04DX003 (ip), vehicle: Klucel (hydroxypropylcellulose) (HPC) 122 % of control

OC1(C#CC2(O)c3ccccc3-c3ccccc32)c2ccccc2-c2ccccc21
inactive: [5] 105 % of control | [6] 108 % of control | [7] 102 % of control

NC(=S)N/N=C/c1ccccn1
inactive: dose: 0.12 mg/kg/injection, schedule: Q03HX032 (ip), vehicle: saline with Tween-80 122 % of control | dose: 0.25 mg/kg/injection, schedule: Q03HX032 (ip), vehicle: saline with Tween-80 113 % of control | dose: 0.5 mg/kg/injection, schedule: Q03HX032 (ip), vehicle: saline with Tween-80 122 % of control | dose: 1.0 mg/kg/injection, schedule: Q03HX032 (ip), vehicle: saline with Tween-80 114 % of control | dose: 1.25 mg/kg/injection, schedule: Q01DX009 (ip), vehicle: saline with Tween-80 96 % of control | dose: 2.0 mg/kg/injection, schedule: Q04DX003 (ip), vehicle: saline with Tween-80 103 % of control | dose: 3.5 mg/kg/injection, schedule: Q04DX003 (ip), vehicle: saline with Tween-80 96 % of control | dose: 4.0 mg/kg/injection, schedule: Q04DX003 (ip), vehicle: saline with Tween-80 116 % of control | dose: 5.0 mg/kg/injection, schedule: Q01DX009 (ip), vehicle: saline with Tween-80 94 % of control | dose: 5.3 mg/kg/injection, schedule: Q04DX003 (ip), vehicle: saline with Tween-80 106 % of control | dose: 8.0 mg/kg/injection, schedule: Q04DX003 (ip), vehicle: saline with Tween-80 109 % of control | dose: 13.0 mg/kg/injection, schedule: Q04DX003 (ip), vehicle: saline with Tween-80 112 % of control

CC(=O)N(C(C)=O)c1ccc(C)cc1
inactive: [1] 93 % of control | [2] 104 % of control | [3] 104 % of control
